Consider 10 molecules from patent publication US6878712B1, “Amides as inhibitors for pyruvate dehydrogenase” (AstraZeneca AB, priority 1999, dated 2005).

The term melting point denotes the temperature of the solid-liquid transition.

Data set [1] has as its system PDH. The settings on record: cited from earlier work.
The conditions of data set [2]: cited from earlier work.

Where a name gives a salt, the structure may show the parent alone.

Consider `C[C@@](O)(C(=O)N1CCC(N)CC1)C(F)(F)F` (as salt: hydrochloride), for which the melting point lay within 245 to 246 °C. On to `C[C@@](O)(C(=O)N1CCC(C(=O)c2ccc(F)cc2)CC1)C(F)(F)F`, for which the melting point lay in the range of 78 to 79 °C. Same read-out and setting: the figure for `C[C@@H]1CN(C(=O)[C@@](C)(O)C(F)(F)F)[C@@H](C)CN1S(=O)(=O)c1ccc(C(=O)O)cc1` is 194 to 196 °C. Turning to `O=C(O)C(Cl)Cl` [DCA, dichloroacetic acid], the “activity of PDH” value in data set [1] (after acute administration in animals) is listed as “increases the activity of PDH”. Further, the “proportion of PDH in its active form” value in data set [1] (single administration, 150 mg/kg, intraperitoneally) is on record as “increased the proportion of PDH in its active form”. In data set [2] (after repeated administration), the plasma glucose result is listed as “significant decrease in plasma glucose”. Besides, the glycaemia result in data set [2] (in vivo) is “reducing glycaemia”. `C[C@@H]1CN(C(=O)[C@@](C)(O)C(F)(F)F)[C@@H](C)CN1S(=O)(=O)c1ccc(C#N)cc1` displayed a melting point of 186 to 187 °C.

The molecule `C[C@@H]1CN(C(=O)[C@@](C)(O)C(F)(F)F)[C@@H](C)CN1S(=O)(=O)c1ccc(F)cc1` returned a melting point of 174 to 175 °C. Same read-out and setting: the figure for `CCS(=O)(=O)N1C[C@H](C)N(C(=O)[C@@](C)(O)C(F)(F)F)C[C@H]1C` is 142 to 144 °C. On the same count and under the same terms, the figure for `C[C@@H]1CN(C(=O)[C@@](C)(O)C(F)(F)F)[C@@H](C)CN1S(=O)(=O)c1ccc(C(=O)N(C)C)cc1` is 86 to 87 °C. For the molecule `C[C@@H]1CN(C(=O)[C@@](C)(O)C(F)(F)F)[C@@H](C)CN1C(=O)c1ccc(F)cc1`, the melting point lay within 177 to 178 °C. Same read-out and setting: then `C[C@@H]1CN(C(=O)[C@@](C)(O)C(F)(F)F)[C@@H](C)CN1S(=O)(=O)c1cccs1`, with 116 to 117 °C.
